The nature of the first data set: biological half-life for sleep-wake behaviour in rats. The following applies: rat, in vivo. Here is the method:
The biological half-lives of the phenoxyphenyl derivatives were determined for the sleep-wake behaviour in rats and compared with the half-lives of the prior art compounds.
Turning to `NCc1ccccc1Sc1ccccc1` [2-(phenylthio)benzenemethanamine, reference compound], the half-life is 30 min. The same measure, in the same setting: under `COc1ccc(Sc2ccccc2CN)cc1` [2-[(4-methoxyphenyl)thio]-benzenemethanamine, reference compound] stands less than 30 min.

`CN(C)Cc1ccccc1Oc1ccc(Cl)cc1.O=C(O)/C=C\C(=O)O` [Example 4, 2-(4-chlorophenoxy)-N,N-dimethylbenzenemethanamine (Z)-2-butenedioate] had a half-life of 60 min. The molecule `Clc1ccc(Oc2ccccc2C2=NCCN2)cc1Cl.O=C(O)/C=C\C(=O)O` [Example 6a, 2-[2-(3,4-dichlorophenoxy)phenyl]-4,5-dihydro-1H-imidazole (Z)-2-butenedioate] had a half-life of 90 to 150 min.

Still in this data set, the particulars now being: rat, in vivo; biological half-life, sleep-wake behaviour in rats; read-out: half-life (converted).
Consider `Cl.NCc1ccccc1Oc1ccc(Cl)cc1` [Example 1, 2-(4-chlorophenoxy)benzenemethanamine hydrochloride], for which the half-life is 60 to 150 min. Still for that read-out and setting: under `Cl.NCc1ccccc1Oc1ccc(Cl)c(Cl)c1` [Example 2, 2-(3,4-dichlorophenoxy)benzenemethanamine hydrochloride] stands 150 min; under `Clc1ccc(Oc2ccccc2C2=NCCN2)cc1.O=C(O)/C=C\C(=O)O` [Example 5, 2-[2-(4-chlorophenoxy)phenyl]-4,5-dihydro-1H-imidazole (Z)-2-butenedioate], 180 min.

These data come from patent US5430063A, “Phenoxyphenyl derivatives, compositions thereof and methods for their use” (Akzo N.V., priority 1991, dated 1995).
